Format in all cases: functional
Assay [1] is filed under the species Rattus norvegicus. Put plainly: Ratio of the negative logarithmic concentration to that of dequalinium that cause 50% inhibition of the hyperpolarization (AHP).
Assay [2] is filed under the species Rattus norvegicus. As to the kind of experiment: The equi-effective molar ratio of the concentration to that of dequalinium that cause 50% inhibition of the hyperpolarization (AHP).
The species named for assay [3] is Rattus norvegicus. As to the kind of experiment: Ability to inhibit the hyperpolarization (AHP) in cultured rat sympathetic neurons. To be noted: Sympathetic neuron.

One may read the IC50 as the point on the concentration scale where inhibition reaches its midpoint.

In the case of `c1ccc2c(c1)ccc[n+]2CCCCCCCCCC[n+]1cccc2ccccc21`, the pEMR in assay [1] is given as -1.18. Also, the EMR in assay [2] is given as 15.
The like results for `Cc1cc(N)c2ccccc2[n+]1CCCCCCCCCC[n+]1c(C)cc(N)c2ccccc21.[Cl-].[Cl-]` [DEQUALINIUM CHLORIDE] were, in that order, 0 and 1.
Regarding `CN(C)c1cc[n+](CCCCCCCCCC[n+]2ccc(N(C)C)c3ccccc32)c2ccccc12`, in assay [3], the concentration for half-maximal inhibition (IC50) came to 1400 nM. Moreover, the pEMR in assay [1] is recorded as -0.15. In assay [2], the EMR is recorded as 1.4.
Regarding `Nc1cc[n+](CCCCCCCCCC[n+]2ccc(N)c3ccccc32)c2ccccc12`, in assay [3], the midpoint of inhibition, the IC50, lay at 1400 nM. In addition, in assay [1], the pEMR is -0.11. Moreover, the EMR in assay [2] is 1.3.
The like results for `CC(=O)Nc1cc[n+](CCCCCCCCCC[n+]2ccc(NC(C)=O)c3ccccc32)c2ccccc12` were, in that order, 4500 nM, -0.74 and 5.5.
In turn, `Cc1cc[n+](CCCCCCCCCC[n+]2ccc(C)c3ccccc32)c2ccccc12` gave an IC50 in assay [3] of 15000 nM. Further, the pEMR in assay [1] is on record as -1.41. The EMR in assay [2] is recorded as 26.
The like results for `c1ccc(Nc2cc[n+](CCCCCCCCCC[n+]3ccc(Nc4ccccc4)c4ccccc43)c3ccccc23)cc1` were, in that order, 2400 nM, -0.53 and 3.4.
The like results for `c1ccc(Oc2cc[n+](CCCCCCCCCC[n+]3ccc(Oc4ccccc4)c4ccccc43)c3ccccc23)cc1` were, in that order, 2700 nM, -0.81 and 6.5.
